Measurements as given in US9695155B2, “Herbicidal substituted pyrimidinyloxy benzene compounds” (E. I. DU PONT DE NEMOURS AND COMPANY, priority 2013, dated 2017).

Legend:
rice = assay: Test B flooded paddy test; format: in vivo, Oryza sativa; settings: Flood, 250 g ai/ha, 0 to 100 scale where 0 is no effect and 100 is complete control
Summary of the method: (§1)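 Scores from 0 (no effect) to 100 (complete control) are visual comparisons with controls, taken 13 to 15 days after compound was applied into floodwater 3 cm deep around 2-leaf plants.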

large (Lg) crabgrass [1] = assay: Test A preemergence; format: in vivo, Digitaria sanguinalis
Summary of the method: (§2)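 Greenhouse pot test, loam/sand soil. Formulation: non-phytotoxic solvent mix plus surfactant. Pre: directed spray onto soil after sowing. Post: plants at 1–2 leaf, 2–10 cm. Rated visually vs untreated controls at ~10 d, 0 (no effect) to 100 (complete control).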

corn [2] = assay: Test A postemergence; format: in vivo, Zea mays
Summary of the method: as §2

giant foxtail [3] = assay: Test A postemergence; format: in vivo, Setaria faberii
Summary of the method: as §2

morningglory [4] = assay: Test A postemergence; format: in vivo, Ipomoea spp.
Summary of the method: as §2

velvetleaf [5] = assay: Test A postemergence; format: in vivo, Abutilon theophrasti
Summary of the method: as §2

Heteranthera limosa = assay: Test B flooded paddy test; format: in vivo; settings: Flood, 250 g ai/ha, 0 to 100 scale where 0 is no effect and 100 is complete control
Summary of the method: as §1

velvetleaf [6] = assay: Test A preemergence; format: in vivo, Abutilon theophrasti
Summary of the method: as §2

sedge, umbrella = assay: Test B flooded paddy test; format: in vivo, Cyperus difformis; settings: Flood, 250 g ai/ha, 0 to 100 scale where 0 is no effect and 100 is complete control
Summary of the method: as §1

pigweed [7] = assay: Test A postemergence; format: in vivo, Amaranthus retroflexus
Summary of the method: as §2

corn [8] = assay: Test A preemergence; format: in vivo, Zea mays
Summary of the method: as §2

barnyardgrass [9] = assay: Test B flooded paddy test; format: in vivo, Echinochloa crus-galli; settings: Flood, 250 g ai/ha, 0 to 100 scale where 0 is no effect and 100 is complete control
Summary of the method: as §1

large (Lg) crabgrass [10] = assay: Test A postemergence; format: in vivo, Digitaria sanguinalis
Summary of the method: as §2

giant foxtail [11] = assay: Test A preemergence; format: in vivo, Setaria faberii
Summary of the method: as §2

pigweed [12] = assay: Test A preemergence; format: in vivo, Amaranthus retroflexus
Summary of the method: as §2

wheat [13] = assay: Test A postemergence; format: in vivo, Triticum aestivum
Summary of the method: as §2

barnyardgrass [14] = assay: Test A postemergence; format: in vivo, Echinochloa crus-galli
Summary of the method: as §2

wheat [15] = assay: Test A preemergence; format: in vivo, Triticum aestivum
Summary of the method: as §2

morningglory [16] = assay: Test A preemergence; format: in vivo, Ipomoea spp.
Summary of the method: as §2

barnyardgrass [17] = assay: Test A preemergence; format: in vivo, Echinochloa crus-galli
Summary of the method: as §2

[18] = 125 g ai/ha, 0 to 100 scale where 0 is no effect and 100 is complete control
[19] = 500 g ai/ha, 0 to 100 scale, 0 no effect, 100 complete control, approx. 10 days
[20] = 500 g ai/ha, 0 to 100 scale, 0 no effect, 100 complete control

Structure (SMILES): Clc1cnc(Oc2ccccc2-n2ncc(Br)n2)nc1 [Compound 54, 2-[2-(4-bromo-2H-1,2,3-triazol-2-yl)phenoxy]-5-chloropyrimidine]
- plant injury at 250 g/ha (rice; Oryza sativa, read-out: Plant response rating, Rice): 0%
- pest or weed control at 1000 g/ha (large (Lg) crabgrass [1]; Digitaria sanguinalis, pre-emergence, 240 h, 1000 g ai/ha, 0 to 100 scale, 0 no effect, 100 complete control, read-out: Plant response rating, Crabgrass, Large): 100%
- plant injury at 1000 g/ha (corn [2]; Zea mays, post-emergence, 240 h, 1000 g ai/ha, 0 to 100 scale, 0 no effect, 100 complete control, read-out: Plant response rating Corn): 50%
- pest or weed control at 1000 g/ha (giant foxtail [3]; Setaria faberi, post-emergence, 240 h, 1000 g ai/ha, 0 to 100 scale, 0 no effect, 100 complete control, read-out: Plant response rating Foxtail, Giant): 70%
- pest or weed control at 1000 g/ha (morningglory [4]; Ipomoea, post-emergence, 240 h, 1000 g ai/ha, 0 to 100 scale, 0 no effect, 100 complete control, read-out: Plant response rating Morningglory): 100%
- pest or weed control at 1000 g/ha (velvetleaf [5]; Abutilon theophrasti, post-emergence, 240 h, 1000 g ai/ha, 0 to 100 scale, 0 no effect, 100 complete control, read-out: Plant response rating Velvetleaf): 80%
- pest or weed control at 250 g/ha (Heteranthera limosa; Heteranthera limosa, read-out: Plant response rating, Ducksalad): 0%
- pest or weed control at 1000 g/ha (velvetleaf [6]; Abutilon theophrasti, pre-emergence, 240 h, 1000 g ai/ha, 0 to 100 scale, 0 no effect, 100 complete control, approx. 10 days, read-out: Velvetleaf plant response rating): 100%
- pest or weed control at 250 g/ha (sedge, umbrella; Cyperus difformis, read-out: Plant response rating, Sedge, Umbrella): 0%
- pest or weed control at 1000 g/ha (pigweed [7]; Amaranthus retroflexus, post-emergence, 240 h, 1000 g ai/ha, 0 to 100 scale, 0 no effect, 100 complete control, read-out: Plant response rating Pigweed): 100%
- Corn plant response rating (crop injury, 0 = no effect, 100 = complete kill) at 1000 g/ha (corn [8]; Zea mays, pre-emergence, 240 h, 1000 g ai/ha, 0 to 100 scale, 0 no effect, 100 complete control): 20%
- pest or weed control at 250 g/ha (barnyardgrass [9]; Echinochloa crus-galli, read-out: Plant response rating, Barnyardgrass): 0%
- pest or weed control at 1000 g/ha (large (Lg) crabgrass [10]; Digitaria sanguinalis, post-emergence, 240 h, 1000 g ai/ha, 0 to 100 scale, 0 no effect, 100 complete control, read-out: Plant response rating Crabgrass, Large): 100%
- pest or weed control at 1000 g/ha (giant foxtail [11]; Setaria faberi, pre-emergence, 240 h, 1000 g ai/ha, 0 to 100 scale, 0 no effect, 100 complete control, approx. 10 days, read-out: Foxtail, Giant plant response rating): 100%
- pest or weed control at 1000 g/ha (pigweed [12]; Amaranthus retroflexus, pre-emergence, 240 h, 1000 g ai/ha, 0 to 100 scale, 0 no effect, 100 complete control, approx. 10 days, read-out: Pigweed plant response rating): 100%
- plant injury at 1000 g/ha (wheat [13]; Triticum aestivum, post-emergence, 240 h, 1000 g ai/ha, 0 to 100 scale, 0 no effect, 100 complete control, read-out: Plant response rating Wheat): 0%
- pest or weed control at 1000 g/ha (barnyardgrass [14]; Echinochloa crus-galli, post-emergence, 240 h, 1000 g ai/ha, 0 to 100 scale, 0 no effect, 100 complete control, read-out: Plant response rating Barnyardgrass): 30%
- plant injury at 1000 g/ha (wheat [15]; Triticum aestivum, pre-emergence, 240 h, 1000 g ai/ha, 0 to 100 scale, 0 no effect, 100 complete control, approx. 10 days, read-out: Wheat plant response rating): 0%
- pest or weed control at 1000 g/ha (morningglory [16]; Ipomoea, pre-emergence, 240 h, 1000 g ai/ha, 0 to 100 scale, 0 no effect, 100 complete control, approx. 10 days, read-out: Morningglory plant response rating): 70%
- pest or weed control at 1000 g/ha (barnyardgrass [17]; Echinochloa crus-galli, pre-emergence, 240 h, 1000 g ai/ha, 0 to 100 scale, 0 no effect, 100 complete control, read-out: Plant response rating, Barnyardgrass): 0%

Structure (SMILES): Cc1cnc(Oc2ccccc2-n2cc(Br)cn2)nc1 [Compound 9]
- Plant response rating, Rice (rice): 0
- Crabgrass, Large plant response rating (large (Lg) crabgrass [1]; [18]): 90
- Crabgrass, Large plant response rating (large (Lg) crabgrass [1]; [19]): 100
- Plant response rating, Corn (corn [2]; [18]): 20
- Plant response rating, Corn (corn [2]; [20]): 50
- Plant response rating, Foxtail, Giant (giant foxtail [3]; [18]): 30
- Plant response rating, Foxtail, Giant (giant foxtail [3]; [20]): 90
- Plant response rating, Morningglory (morningglory [4]; [18]): 20
- Plant response rating, Morningglory (morningglory [4]; [20]): 30
- Plant response rating, Velvetleaf (velvetleaf [5]; [18]): 100
- Plant response rating, Velvetleaf (velvetleaf [5]; [20]): 100
- Plant response rating, Ducksalad (Heteranthera limosa): 80
- Velvetleaf plant response rating (velvetleaf [6]; [18]): 80
- Velvetleaf plant response rating (velvetleaf [6]; [19]): 100
- Plant response rating, Sedge, Umbrella (sedge, umbrella): 60
- Plant response rating, Pigweed (pigweed [7]; [18]): 80
- Plant response rating, Pigweed (pigweed [7]; [20]): 90
- Corn plant response rating (corn [8]; [18]): 0
- Corn plant response rating (corn [8]; [19]): 20
- Plant response rating, Barnyardgrass (barnyardgrass [9]): 0
- Plant response rating, Crabgrass, Large (large (Lg) crabgrass [10]; [18]): 30
- Plant response rating, Crabgrass, Large (large (Lg) crabgrass [10]; [20]): 80
- Foxtail, Giant plant response rating (giant foxtail [11]; [18]): 80
- Foxtail, Giant plant response rating (giant foxtail [11]; [19]): 90
- Pigweed plant response rating (pigweed [12]; [18]): 100
- Pigweed plant response rating (pigweed [12]; [19]): 100
- Plant response rating, Wheat (wheat [13]; [18]): 0
- Plant response rating, Wheat (wheat [13]; [20]): 30
- Plant response rating, Barnyardgrass (barnyardgrass [14]; [18]): 30
- Plant response rating, Barnyardgrass (barnyardgrass [14]; [20]): 90
- Wheat plant response rating (wheat [15]; [18]): 0
- Wheat plant response rating (wheat [15]; [19]): 0
- Morningglory plant response rating (morningglory [16]; [18]): 0
- Morningglory plant response rating (morningglory [16]; [19]): 0
- Barnyardgrass plant response rating (barnyardgrass [17]; [18]): 30
- Barnyardgrass plant response rating (barnyardgrass [17]; [19]): 100
